Test results from ChEMBL document CHEMBL4043194, “Nrf2 activators from Glycyrrhiza inflata and their hepatoprotective activities against CCl4-induced liver injury in mice” (Bioorg Med Chem, 2017).
Calls of active or inactive are those of the source. No cut-off for these calls is given here.

Tests used:
Mus musculus [1] = test: Hepatoprotective activity against CCL4-induced liver damage in ICR mouse assessed as alanine aminotransferase level at 100 mg/kg, po administered once daily for 7 consecutive days followed by CCL4 challenge 6 hrs after last dose and measured 24 hrs post CCL4 injection (reference value: 1025 U/L); format: functional, organism-based
Mus musculus [2] = test: Hepatoprotective activity against CCL4-induced liver damage in ICR mouse assessed as aspartate aminotransferase level at 100 mg/kg, po administered once daily for 7 consecutive days followed by CCL4 challenge 6 hrs after last dose and measured 24 hrs post CCL4 injection (reference value: 625 U/L); format: functional, organism-based
Mus musculus [3] = test: (§1) Hepatoprotective activity against CCL4-induced liver damage in ICR mouse assessed as LDH level at 100 mg/kg, po administered once daily for 7 consecutive days followed by CCL4 challenge 6 hrs after last dose and measured 24 hrs post CCL4 injection (reference value: 2818 U/L); format: functional, organism-based
Mus musculus [4] = test: as §1, with “reduction in liver lesions by measuring necrosis” for “LDH level”, “by hematoxylin-eosin staining based light microscopy” for “(reference value: 2818 U/L)”; format: functional, organism-based
Mus musculus [5] = test: as §1, with “reduction in liver lesions by measuring ballooning degeneration” for “LDH level”, “by hematoxylin-eosin staining based light microscopy” for “(reference value: 2818 U/L)”; format: functional, organism-based
Mus musculus [6] = test: as §1, with “reduction in liver lesions by measuring neutrophil infiltration” for “LDH level”, “by hematoxylin-eosin staining based light microscopy” for “(reference value: 2818 U/L)”; format: functional, organism-based
[7] = biological target: T1, Nuclear factor erythroid 2-related factor 2 (Homo sapiens) (UniProt Q16236); test: Activation of Nrf2 (unknown origin) expressed in human HepG2 cells at 10 uM incubated for 6 hrs by ARE-driven luciferase reporter gene assay relative to untreated control; format: cell-based
T1 sequence (whole entry): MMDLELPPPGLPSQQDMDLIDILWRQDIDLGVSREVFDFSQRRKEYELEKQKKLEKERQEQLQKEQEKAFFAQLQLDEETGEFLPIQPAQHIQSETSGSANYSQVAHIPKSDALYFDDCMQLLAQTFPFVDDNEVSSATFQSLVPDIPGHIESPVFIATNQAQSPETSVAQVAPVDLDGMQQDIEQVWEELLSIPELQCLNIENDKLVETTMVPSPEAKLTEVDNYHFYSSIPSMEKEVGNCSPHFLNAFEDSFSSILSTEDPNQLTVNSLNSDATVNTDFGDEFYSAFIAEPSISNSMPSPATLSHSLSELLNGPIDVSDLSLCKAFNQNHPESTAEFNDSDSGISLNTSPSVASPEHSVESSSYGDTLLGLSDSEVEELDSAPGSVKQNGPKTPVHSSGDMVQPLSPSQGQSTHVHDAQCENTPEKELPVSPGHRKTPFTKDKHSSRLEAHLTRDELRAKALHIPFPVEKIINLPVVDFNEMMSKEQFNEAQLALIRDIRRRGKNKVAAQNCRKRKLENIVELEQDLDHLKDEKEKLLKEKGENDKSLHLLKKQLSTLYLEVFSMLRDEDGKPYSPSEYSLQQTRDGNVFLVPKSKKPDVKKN

[8] = biological target: T1, Nuclear factor erythroid 2-related factor 2 (Homo sapiens); test: Activation of Nrf2 (unknown origin) expressed in human HepG2 cells at 2.5 to 20 uM incubated for 6 hrs by ARE-driven luciferase reporter gene assay; format: cell-based
HepG2 [9] = test: Cytotoxicity in human HepG2 cells expressing Nrf2/ARE-driven luciferase at 20 to 40 uM incubated for 6 hrs; format: cell-based; details: hepg2, 6 h
[10] = biological target: T1, Nuclear factor erythroid 2-related factor 2 (Homo sapiens); test: Activation of Nrf2 (unknown origin) expressed in human HepG2 cells assessed as cytoprotection against CCL4-induced cell injury by measuring increase in cell viability at 2.5 to 20 uM relative to untreated control; format: cell-based
Mus musculus [11] = test: Hepatoprotective activity against CCL4-induced liver damage in ICR mouse assessed as alanine aminotransferase level at 50 mg/kg, po administered once daily for 7 consecutive days followed by CCL4 challenge 6 hrs after last dose and measured 24 hrs post CCL4 injection (reference value: 1025 U/L); format: functional
Mus musculus [12] = test: Hepatoprotective activity against CCL4-induced liver damage in ICR mouse assessed as aspartate aminotransferase level at 50 mg/kg, po administered once daily for 7 consecutive days followed by CCL4 challenge 6 hrs after last dose and measured 24 hrs post CCL4 injection (reference value: 625 U/L); format: functional
Mus musculus [13] = test: (§2) Hepatoprotective activity against CCL4-induced liver damage in ICR mouse assessed as LDH level at 50 mg/kg, po administered once daily for 7 consecutive days followed by CCL4 challenge 6 hrs after last dose and measured 24 hrs post CCL4 injection (reference value: 2818 U/L); format: functional
Mus musculus [14] = test: as §2, with “reduction in liver lesions by measuring necrosis” for “LDH level”, “by hematoxylin-eosin staining based light microscopy” for “(reference value: 2818 U/L)”; format: functional, organism-based
Mus musculus [15] = test: as §2, with “reduction in liver lesions by measuring ballooning degeneration” for “LDH level”, “by hematoxylin-eosin staining based light microscopy” for “(reference value: 2818 U/L)”; format: functional, organism-based
Mus musculus [16] = test: as §2, with “reduction in liver lesions by measuring neutrophil infiltration” for “LDH level”, “by hematoxylin-eosin staining based light microscopy” for “(reference value: 2818 U/L)”; format: functional, organism-based
[17] = biological target: T1, Nuclear factor erythroid 2-related factor 2 (Homo sapiens); test: Activation of Nrf2 (unknown origin) expressed in human HepG2 cells at 2.5 to 10 uM incubated for 6 hrs by ARE-driven luciferase reporter gene assay; format: cell-based
HepG2 [18] = test: Cytotoxicity in human HepG2 cells expressing Nrf2/ARE-driven luciferase at 10 to 40 uM incubated for 6 hrs; format: cell-based; details: hepg2, 6 h
[19] = Cmax in Sprague-Dawley rat at 50 mg/kg, po administered as single dose measured after 0.08 to 24 hrs post dose by LC/MS/MS method; format: ADME, organism-based; design: dose 50 mg/kg, route oral; details: in vivo
[20] = Tmax in Sprague-Dawley rat at 50 mg/kg, po administered as single dose measured after 0.08 to 24 hrs post dose by LC/MS/MS method; format: ADME, organism-based; details: in vivo
[21] = Half life in Sprague-Dawley rat at 50 mg/kg, po administered as single dose measured after 0.08 to 24 hrs post dose by LC/MS/MS method; format: ADME, organism-based; details: in vivo
[22] = AUC (0 to t) in Sprague-Dawley rat at 50 mg/kg, po administered as single dose measured after 0.08 to 24 hrs post dose by LC/MS/MS method; format: ADME, organism-based; design: dose 50 mg/kg, time 0.08-24 hr, route oral; details: in vivo
Rattus norvegicus [23] = test: AUC (0 to infinity) in Sprague-Dawley rat at 50 mg/kg, po administered as single dose measured after 0.08 to 24 hrs post dose by LC/MS/MS method; format: ADME, organism-based; design: dose 50 mg/kg, time infinity, route oral; details: in vivo
[24] = MRT (0 to t) in Sprague-Dawley rat at 50 mg/kg, po administered as single dose measured after 0.08 to 24 hrs post dose by LC/MS/MS method; format: ADME, organism-based; details: in vivo
[25] = MRT (0 to infinity) in Sprague-Dawley rat at 50 mg/kg, po administered as single dose measured after 0.08 to 24 hrs post dose by LC/MS/MS method; format: ADME, organism-based; details: in vivo
Rattus norvegicus [26] = test: Apparent clearance during terminal phase in Sprague-Dawley rat at 50 mg/kg, po administered as single dose measured after 0.08 to 24 hrs post dose by LC/MS/MS method; format: ADME, organism-based; details: in vivo
[27] = Apparent volume of distribution during terminal phase in Sprague-Dawley rat at 50 mg/kg, po administered as single dose measured after 0.08 to 24 hrs post dose by LC/MS/MS method; format: ADME, organism-based; details: in vivo, read-out: Vz/F
Rattus norvegicus [28] = test: VRT (0 to t) in Sprague-Dawley rat at 50 mg/kg, po administered as single dose measured after 0.08 to 24 hrs post dose by LC/MS/MS method; format: ADME, organism-based; details: in vivo
Rattus norvegicus [29] = test: VRT (0 to infinity) in Sprague-Dawley rat at 50 mg/kg, po administered as single dose measured after 0.08 to 24 hrs post dose by LC/MS/MS method; format: ADME, organism-based; details: in vivo

SILYMARIN
Activity (Mus musculus [1]): 70 to 100 U/L
Activity (Mus musculus [2]): 150 to 180 U/L
Activity (Mus musculus [3]): 800 to 1200 U/L
Activity (Mus musculus [4]): Active
Activity (Mus musculus [5]): Active
Activity (Mus musculus [6]): Active

COc1c(/C=C/C(=O)c2ccc(O)cc2)ccc(O)c1O
fold change (FC) [7]: 5.17
Activity [8]: Dose-dependent effect
Activity (HepG2 [9]): Toxic
Activity [10]: > 60%
Activity (Mus musculus [11]): 70 - 100 U/L
Activity (Mus musculus [12]): 150 - 180 U/L
Activity (Mus musculus [13]): 800 - 1200 U/L
Activity (Mus musculus [14]): Active
Activity (Mus musculus [15]): Active
Activity (Mus musculus [16]): Active

C=CC(C)(C)c1cc(/C=C/C(=O)c2ccc(O)cc2)c(OC)cc1O [LICOAGROCHACONE A]
Activity [17]: Dose-dependent effect
fold change (FC) [7]: 4.07
Activity (HepG2 [18]): Toxic
Activity [10]: > 60%
Activity (Mus musculus [11]): 70 - 100 U/L
Activity (Mus musculus [12]): 150 - 180 U/L
Activity (Mus musculus [13]): 800 - 1200 U/L
Activity (Mus musculus [14]): Active
Activity (Mus musculus [15]): Active
Activity (Mus musculus [16]): Active
Cmax [19]: 96.8 ng/mL
Tmax [20]: 2.5 h
half-life [21]: 10.3 h
AUC(0-t) [22]: 837 ng·h/mL
AUC (Rattus norvegicus [23]): 993.88 ng·h/mL
MRT last [24]: 8.48 h
MRT inf [25]: 14.5 h
CLz/F (Rattus norvegicus [26]): 389.8 mL/min/kg
Vd/F [27]: 370 L/kg
VRT(t) (Rattus norvegicus [28]): 40.43 hr2
VRT (Rattus norvegicus [29]): 256.28 hr2

COc1cc(O)ccc1/C=C/C(=O)c1ccc(O)cc1 [ECHINATIN]
fold change (FC) [7]: 4.09
Activity [8]: Dose-dependent effect
Activity (HepG2 [9]): Toxic
Activity [10]: > 60%
Activity (Mus musculus [11]): 70 - 100 U/L
Activity (Mus musculus [12]): 150 - 180 U/L
Activity (Mus musculus [13]): 800 - 1200 U/L
Activity (Mus musculus [14]): Active
Activity (Mus musculus [15]): Active
Activity (Mus musculus [16]): Active
Cmax [19]: 228 ng/mL
Tmax [20]: 0.5 h
half-life [21]: 7.32 h
AUC(0-t) [22]: 686 ng·h/mL
AUC (Rattus norvegicus [23]): 1154.92 ng·h/mL
MRT last [24]: 3.98 h
MRT inf [25]: 3.98 h
CLz/F (Rattus norvegicus [26]): 349.5 mL/min/kg
Vd/F [27]: 154 L/kg
VRT(t) (Rattus norvegicus [28]): 9.97 hr2
VRT (Rattus norvegicus [29]): 217.15 hr2
